Experimental data reported in patent publication US20260015364A1, “PIPERAZINE BRIDGE-SUBSTITUTED HETEROCYCLIC PYRIMIDINE COMPOUND” (MEDSHINE DISCOVERY INC., priority 2022, published 2026).

Experiments:
[1] = In vivo pharmacokinetic experiment in CD-1 mice
Protocol: This experiment aims to investigate the pharmacokinetic properties of the compounds of the present disclosure administrated by oral and intravenous injection in CD-1 mice.
The test compound was mixed with 10% dimethyl sulfoxide+90% (10% hydroxypropyl-β-cyclodextrin (HP-β-CD) aqueous solution), vortexed, and sonicated to prepare 0.6, 3.0, and 10.0 mg/mL clear solutions, respectively. Male CD-1 mice aged 7 to 10 weeks were selected and intravenously injected (i.v.) with a solution of the candidate compound at a dose of 3 mg/kg (administration concentration of 0.6 mg/mL). The solution of the candidate compound was administered orally (p.o.) at a dose of 30 mg/kg (administration concentration of 3.0 mg/mL) or 100 mg/kg (administration concentration of 10.0 mg/mL). Whole blood was collected for a certain period of time and prepared into plasma. The drug concentration was analyzed by the LC-MS/MS method, and the pharmacokinetic parameters were calculated using Phoenix WinNonlin software (Pharsight, USA).

[2] = tested on: AsPC-1 human pancreatic cancer cells with KRAS^G12D mutation; assay: AsPC-1 3D CTG experiment (anti-proliferation); format: cell-based; settings: ASPC1, 168 h, 7 days incubation
Description: This experiment aims to verify the inhibitory effect of the compounds of the present disclosure on the proliferation of AsPC-1 human pancreatic cancer cells with KRAS^G12D mutation.
Cell line AsPC-1 and RPMI-1640 medium were purchased from GIBCO, and FBS was purchased from Hyclone. The 96-well plate was purchased from Ultra Low Cluster, CellTiter-Glo® 3D Cell Viability Assay reagents (chemiluminescent 3D cell viability assay reagents) were purchased from Promega, and 2104 EnVision plate reader was purchased from PerkinElmer.
AsPC-1 cells were cultured in an incubator at 37° C. with 5% CO2 the conditions of RPMI-1640+10% FBS. Regular passaging was performed, and cells in the logarithmic growth phase were selected for plating. AsPC-1 cells were seeded in a 96-well U-bottom cell culture plate, and each well of 135 μL cell suspension contained 500 AsPC-1 cells. The culture plate was cultured overnight in a 37° C., 5% CO2 incubator with 100% relative humidity. The test compound was diluted 5-fold to the eighth concentration using a pipette, ranging from 200 μM to 2.56 nM, and tested in duplicate. 78 μL of culture medium per well was added to an intermediate plate. Subsequently, 2 μL of the gradient diluted compound per well was transferred to the corresponding wells of the intermediate plate and mixed well. […] A multimode microplate reader was used for reading. […]

[3] = tested on: p-ERK in GP2D cells; assay: p-ERK inhibition test of GP2D cells (HTRF); format: cell-based; settings: Homo sapiens, 1 hour compound incubation
Protocol: • 1). GP2D cells are seeded in a transparent 96-well cell culture plate, with 80 μL of cell suspension per well and 8000 cells per well, and the cell plate is incubated in a carbon dioxide incubator at 37° C. overnight; • 2). 2 μL of the compound is added to 78 μL of cell culture medium; after mixing well, 20 μL of the compound solution is taken and added to the corresponding cell plate wells, and the cell plate is put back into the carbon dioxide incubator to incubate for another 1 hour; • 3). After the incubation is completed, the cell supernatant is discarded, and 50 μL of 1× cell lysate is added to each well, and incubated at room temperature for 30 minutes with shaking; • 4). Phospho-ERK1/2 Eu Cryptate antibody and Phospho-ERK1/2 d2 antibody are 20-fold diluted using detection buffer; • 5). […] After the incubation is completed, a multimode microplate reader is used to read HTRF excitation: 320 nm, emission: 615 nm, 665 nm; • 7). The IC50 of the test compound is calculated.
• 1). […] After the incubation was completed, a multimode microplate reader was used to read HTRF excitation: 320 nm, emission: 615 nm, 665 nm; • 7) The IC50 of the test compound was calculated.

[4] = male, mouse, iv, 3 mg/kg, i.v. 3 mpk, plasma
[5] = male, mouse, po, 30 mg/kg, p.o. 30 mpk, plasma
[6] = male, mouse, po, 100 mg/kg, p.o. 100 mpk, plasma

C#Cc1c(F)ccc2cc(N)cc(-c3ncc4c(N5CC6CCC(C5)N6)nc(OC[C@@]56CC(=C)CN5C[C@@H]5C[C@@H]56)nc4c3F)c12 (single isomer, unassigned) [Compound 3]
AUC(0-inf) [1, 4]: 1.66 µM·h | AUC(0-t) [1, 4]: 1.56 µM·h | Vd [1, 4]: 41.1 L/kg | clearance [1, 4]: 50.8 mL/min/kg | half-life [1, 4]: 9.3 h | AUC(0-inf) [1, 5]: 1.18 µM·h | AUC(0-t) [1, 5]: 1.15 µM·h | Cmax [1, 5]: 439 nM | Tmax [1, 5]: 0.583 h | half-life [1, 5]: 5.41 h | AUC(0-inf) [1, 6]: 13.3 µM·h | AUC(0-t) [1, 6]: 13.1 µM·h | Cmax [1, 6]: 3110 nM | Tmax [1, 6]: 1.25 h | half-life [1, 6]: 4.24 h | F ([1]; p.o. 100 mpk): 24.0% | IC50 [2]: 5.74 nM | IC50 [3]: 2.4 nM
